How the values were obtained:
[1] = molecular target: T1, panel of 442 kinases (Homo sapiens, UniProt P00519, E255K); assay type: binding; conditions: Compound Concentration 10 µM
T1 construct: purchased KINOMEscan
Excerpt: (§1) We assessed the selectivity of members of this scaffold using the KINOMEscan methodology across a near comprehensive panel of 442 kinases [[18,27]].

[2] = molecular target: T2, panel of 442 kinases (Homo sapiens, UniProt Q9NRM7); assay type: binding; conditions: Compound Concentration 10 µM
T2 construct: purchased KINOMEscan
T2 sequence (Q9NRM7 1-1088): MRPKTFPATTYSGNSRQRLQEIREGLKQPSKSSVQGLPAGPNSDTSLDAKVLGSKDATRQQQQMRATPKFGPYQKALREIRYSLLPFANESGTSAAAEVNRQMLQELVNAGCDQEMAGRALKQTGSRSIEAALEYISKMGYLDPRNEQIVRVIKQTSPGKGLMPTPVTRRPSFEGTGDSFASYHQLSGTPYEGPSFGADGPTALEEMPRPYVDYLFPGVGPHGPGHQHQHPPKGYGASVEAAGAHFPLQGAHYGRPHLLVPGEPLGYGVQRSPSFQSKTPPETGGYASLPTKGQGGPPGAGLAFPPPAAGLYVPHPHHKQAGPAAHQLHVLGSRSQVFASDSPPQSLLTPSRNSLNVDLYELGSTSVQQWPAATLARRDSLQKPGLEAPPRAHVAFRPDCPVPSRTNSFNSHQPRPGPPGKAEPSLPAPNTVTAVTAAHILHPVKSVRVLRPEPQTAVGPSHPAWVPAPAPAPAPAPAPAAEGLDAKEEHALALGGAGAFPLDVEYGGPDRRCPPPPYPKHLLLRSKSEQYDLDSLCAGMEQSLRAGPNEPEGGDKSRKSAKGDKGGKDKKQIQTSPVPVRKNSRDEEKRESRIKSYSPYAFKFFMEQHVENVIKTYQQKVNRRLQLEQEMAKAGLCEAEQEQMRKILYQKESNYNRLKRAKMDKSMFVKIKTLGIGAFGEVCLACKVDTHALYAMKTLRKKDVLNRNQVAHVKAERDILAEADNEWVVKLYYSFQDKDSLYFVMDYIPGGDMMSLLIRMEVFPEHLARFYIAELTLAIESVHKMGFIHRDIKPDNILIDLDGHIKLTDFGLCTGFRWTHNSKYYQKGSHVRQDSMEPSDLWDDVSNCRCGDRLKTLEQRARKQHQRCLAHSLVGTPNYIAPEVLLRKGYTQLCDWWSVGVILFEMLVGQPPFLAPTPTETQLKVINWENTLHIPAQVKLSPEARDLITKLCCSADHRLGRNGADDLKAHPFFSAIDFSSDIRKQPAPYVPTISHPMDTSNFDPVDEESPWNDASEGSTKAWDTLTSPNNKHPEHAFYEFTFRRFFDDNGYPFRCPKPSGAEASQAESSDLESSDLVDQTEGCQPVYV
Excerpt: as §1

T1 sequence (P00519 whole entry E255K): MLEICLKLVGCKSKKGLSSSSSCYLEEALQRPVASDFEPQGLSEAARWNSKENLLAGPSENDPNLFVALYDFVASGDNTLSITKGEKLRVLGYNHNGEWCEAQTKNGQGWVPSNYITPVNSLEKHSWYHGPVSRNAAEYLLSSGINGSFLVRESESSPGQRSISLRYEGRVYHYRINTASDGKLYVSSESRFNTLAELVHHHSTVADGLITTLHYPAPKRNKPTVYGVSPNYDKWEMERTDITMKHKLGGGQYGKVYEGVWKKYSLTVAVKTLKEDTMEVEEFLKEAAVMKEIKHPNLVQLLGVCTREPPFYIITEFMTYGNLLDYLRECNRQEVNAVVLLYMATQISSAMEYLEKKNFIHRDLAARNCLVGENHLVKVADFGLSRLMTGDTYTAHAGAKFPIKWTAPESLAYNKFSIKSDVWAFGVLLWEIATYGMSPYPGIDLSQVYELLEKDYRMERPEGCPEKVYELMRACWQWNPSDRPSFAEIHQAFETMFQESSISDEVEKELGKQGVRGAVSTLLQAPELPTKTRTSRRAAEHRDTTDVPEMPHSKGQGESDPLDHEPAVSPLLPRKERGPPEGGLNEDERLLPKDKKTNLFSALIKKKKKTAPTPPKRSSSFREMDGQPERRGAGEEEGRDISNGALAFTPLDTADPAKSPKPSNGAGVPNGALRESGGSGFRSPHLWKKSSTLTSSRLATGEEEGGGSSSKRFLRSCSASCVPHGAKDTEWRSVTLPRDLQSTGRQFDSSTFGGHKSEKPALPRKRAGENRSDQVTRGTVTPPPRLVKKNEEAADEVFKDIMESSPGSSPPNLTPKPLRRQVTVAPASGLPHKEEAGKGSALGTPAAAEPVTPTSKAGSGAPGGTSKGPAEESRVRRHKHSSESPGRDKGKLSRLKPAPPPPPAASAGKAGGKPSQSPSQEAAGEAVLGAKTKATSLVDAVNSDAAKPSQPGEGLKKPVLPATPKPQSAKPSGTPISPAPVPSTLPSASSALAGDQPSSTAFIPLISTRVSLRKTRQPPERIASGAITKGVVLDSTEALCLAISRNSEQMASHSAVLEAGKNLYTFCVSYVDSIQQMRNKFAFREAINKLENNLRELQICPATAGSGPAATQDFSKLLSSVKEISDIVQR

SMILES	KINOMEscan: ABL1(E255K)-phosphorylated [1]	KINOMEscan: LATS2 [2]
CCOc1cc(C(=O)N2CCC(N3CCN(C)CC3)CC2)ccc1Nc1ncc2c(n1)N(C1CCCC1)c1ccccc1C(=O)N2C [Compound 26]	100	93
COc1cc(C(=O)N2CCC(N3CCN(C)CC3)CC2)ccc1Nc1ncc2c(n1)N(C1CCCC1)c1ccccc1C(=O)N2C [Compound 25, 11-cyclopentyl-2-((2-methoxy-4-(4-(4-methylpiperazin-1-yl)piperidine-1-carbonyl)phenyl)amino)-5-methyl-5H-benzo[e]pyrimido[5,4-b][1,4]diazepin-6(11H)-one]	92	92
COc1cc(C(=O)N2CCC(N3CCN(C)CC3)CC2)ccc1Nc1ncc2c(n1)N(C)c1ccccc1C(=O)N2C [15 (LRRK2-IN-1)]	80	95

From article PMC3914206
